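Results reflect a 48-hour exposure of cells in 96-well plates to compound at five concentrations. At the GI50, growth is halved. TGI: concentration producing complete growth inhibition.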
Columns and labels:
Test in all cases: inhibition of tumour cell growth, NCI panel, 48 h
[1] = system: HCT-15 colon
[2] = system: HOP-92 NSCLC
[3] = system: HT29 colon
[4] = system: KM12 colon
[5] = system: OVCAR-4 ovarian
[6] = system: SF-268 CNS
[7] = system: SF-539 CNS
[8] = system: SN12C renal
[9] = system: SNB-19 CNS
[10] = system: UACC-62 melanoma

Row | SMILES | TGI [1] [µM] | TGI [2] [µM] | TGI [3] [µM] | TGI [4] [µM] | TGI [5] [µM] | TGI [6] [µM] | TGI [7] [µM] | TGI [8] [µM] | TGI [9] [µM] | TGI [10] [µM] | GI50 [1] [µM] | GI50 [2] [µM] | GI50 [3] [µM] | GI50 [4] [µM] | GI50 [5] [µM] | GI50 [6] [µM] | GI50 [7] [µM] | GI50 [8] [µM] | GI50 [9] [µM] | GI50 [10] [µM]
1 | c1ccc(N=c2nc(N3CCOCC3)ss2)cc1 | 29 | 36.3 | 35.4 | 32.5 | 29.1 | 31.1 | 32.3 | 28.5 | > 100 | 27.5 |  |  |  |  |  |  |  |  |  | 
2 | O=C(COc1ccc(OCC(=O)NNC2=NC(c3cc(F)c(Cl)cc3Cl)CS2)c(Cl)c1)NNC1=NC(c2cc(F)c(Cl)cc2Cl)CS1 (centres undefined) | 36 | > 100 | 59.3 | > 100 | 40.4 |  | 64.5 | 43.8 | > 100 | 40.4 |  |  |  |  |  |  |  |  |  | 
3 | CC(=O)OCC1=C(C(=O)O)C(c2ccc3c(c2)OCO3)c2cc3c(cc2O1)OCO3 (centres undefined) | > 100 | > 100 | > 100 |  | > 100 |  | > 100 | > 100 | > 100 | > 100 |  |  |  |  |  |  |  |  |  | 
4 | NC1(C(=O)O)CCc2ccc(N(CCCl)CCCl)cc2C1 (centres undefined) | > 100 | > 100 | > 100 | > 100 | > 100 | 87 | > 100 | > 100 | > 100 | > 100 |  |  |  |  |  |  |  |  |  | 
5 | CCOc1ccc(/C(C=O)=C(\Cl)c2ccc(OC)c(OC)c2)cc1 | > 100 | > 100 | > 100 |  |  | > 100 | > 100 | > 100 | > 100 | > 100 |  |  |  |  |  |  |  |  |  | 
6 | Cc1cc(C)nc(SCC(=O)OC2CC(C)CCC2C(C)C)n1 (centres undefined) | 43.8 | 67.1 | 39.9 | 42.7 | 50.6 | > 100 |  | 37.2 | 45.9 | 33.9 |  |  |  |  |  |  |  |  |  | 
7 | Cc1cc2c(C(C)C)c(O)c(O)c(C=NCCO)c2c(O)c1-c1c(C)cc2c(C(C)C)c(O)c(O)c(C=NCCO)c2c1O | 2.9 | 5.07 | 4.99 | 2.4 | 16.3 | 3.1 | 5.37 | 9.63 | 25.1 | 6.15 |  |  |  |  |  |  |  |  |  | 
8 | C=C1C(=O)O[C@@H]2[C@H]1CCC(C)=C1C=CC(=O)[C@]12C |  | 18.5 | 24.2 | 31.4 |  | 45.9 | 30 | 29.3 | 71.8 | 22.6 |  |  |  |  |  |  |  |  |  | 
9 | Clc1ccc(CNc2nc(Cl)c3[nH]cnc3n2)cc1Cl | > 100 |  | 83.4 | > 100 | > 100 | 81.8 | 45.2 | > 100 | > 100 | > 100 |  |  |  |  |  |  |  |  |  | 
10 | COC(=O)[C@@]1(Cc2ccc(O)cc2)C[C@@H]2Cc3ccccc3N2N1 | > 100 | > 100 | > 100 | > 100 | > 100 | > 100 | > 100 | > 100 | > 100 | > 100 |  |  |  |  |  |  |  |  |  | 
11 | Fc1ccc(-c2nn3c(-c4cc(C(F)(F)F)cc(C(F)(F)F)c4)nnc3s2)cc1 | > 50 | 3.93 | > 50 | > 50 | > 50 | > 50 | > 50 | > 50 | > 50 | > 50 | > 50 | 1.22 | > 50 | > 50 | 1.48 | 3.03 | 3.07 | 2.51 | 1.57 | > 50
12 | Cc1ccc(C2N=C(N)NC3=C2CCOc2c3ccc3ccccc23)cc1 (centres undefined) | > 60.1 | 57.5 | > 66.7 | > 51.1 | > 83.7 | > 75.6 | 44.7 | > 72 | > 100 | 57.5 |  |  |  |  |  |  |  |  |  | 
13 | Cc1c(-c2ccccc2)c(C#N)c2nnn(C3CCCCC3)c(=O)n12 | > 100 | 80.8 | > 100 | > 100 | > 100 | > 100 | > 100 | > 100 | > 100 | > 100 |  |  |  |  |  |  |  |  |  | 
14 | O=C(Nc1c(C(=O)NC2CCCCC2)[nH]c(=O)[nH]c1=O)c1ccc(Cl)cc1 | > 100 | > 100 | > 100 | > 100 | > 100 | > 100 | > 100 | > 100 |  | > 100 |  |  |  |  |  |  |  |  |  | 
15 | COc1cc(C(=O)C2C(=O)c3ccccc3C2C2(O)c3ccccc3CC2C(O)c2cc(OC)c(OC)c(OC)c2)cc(OC)c1OC (centres undefined) | > 100 | > 100 | > 100 | > 100 | > 100 | > 100 | > 100 | > 100 | > 100 | > 100 |  |  |  |  |  |  |  |  |  | 
16 | COc1c2c(cc3c1OCO3)C13C=CC(OC)CC1N(CC3)C2 (centres undefined) | > 100 | > 100 | > 100 | > 100 | > 100 | > 100 | > 100 | > 100 | > 100 | > 100 |  |  |  |  |  |  |  |  |  | 
17 | CCCC(N)C(=O)c1ccccc1 (centres undefined) | > 100 | > 100 | > 100 | > 100 | > 100 | > 100 | > 100 | > 100 | > 100 | > 100 |  |  |  |  |  |  |  |  |  | 
18 | O=C(Nc1ccc(Sc2ccc(N=Nc3c(O)c(S(=O)(=O)O)cc4cc(S(=O)(=O)O)ccc34)cc2)cc1)c1ccc(N=Nc2c(O)ccc3c(S(=O)(=O)O)cc(S(=O)(=O)O)cc23)cc1 | > 100 | > 100 | > 100 | > 100 | > 100 | > 100 | > 100 | > 100 | > 100 | 49.7 |  |  |  |  |  |  |  |  |  | 
19 | O=c1c2ccccc2nc2n1C(c1ccc([N+](=O)[O-])cc1)C2(c1ccccc1)c1ccccc1 (centres undefined) | > 100 | > 100 | > 100 | > 100 | > 100 | > 100 | > 100 | > 100 | > 100 | > 100 |  |  |  |  |  |  |  |  |  | 
20 | CCC(=O)NC(Nc1cccc(F)c1)(C(F)(F)F)C(F)(F)F | > 100 | > 100 | > 100 | > 100 | > 100 | > 100 | > 100 | > 100 | > 100 | > 100 |  |  |  |  |  |  |  |  |  | 
21 | CC(=O)O[C@H]1C=CC(=O)C(C)CC1C (some centres undefined) |  | > 100 | > 100 | > 100 | > 100 | > 100 | > 100 | > 100 | > 100 | > 100 |  |  |  |  |  |  |  |  |  | 
22 | Cc1cc(C)c2c(c1)C1=NCCN1C2(O)c1ccc(Cl)cc1 (centres undefined) | 32.4 | 28.6 | 31.5 | 30 | 29.7 | 31 | 29 | 30.3 | 31.7 | 29.4 |  |  |  |  |  |  |  |  |  | 
23 | CC(=O)C=NCC(=O)O | > 100 | > 100 | > 100 | > 100 | > 100 | > 100 | > 100 | > 100 | > 100 | > 100 |  |  |  |  |  |  |  |  |  | 
24 | O=C(O)C1CCC(=O)N1S(=O)(=O)c1ccccc1 (centres undefined) | > 100 | > 100 | > 100 | > 100 | > 100 | > 100 | > 100 | > 100 | > 100 | > 100 |  |  |  |  |  |  |  |  |  | 
25 | COc1ccc(-c2nn(-c3cccc(NC(=O)Nc4ccccc4)c3)cc2-c2ccncc2)cc1Cl | 4.98 |  | 4.78 | 4.89 |  | 7 | 3.5 | 7.39 | > 100 | > 100 | 1.96 |  | 2.19 | 2.25 |  | 2.6 | 1.8 | 2.39 | 2.83 | 3.05
26 | c1ccc(-c2nnc(SCc3c[nH]c4ccccc34)n2-c2ccccc2)cc1 | > 100 | 79.3 | > 100 | > 100 | > 100 | > 100 | 70.3 | > 100 | > 100 | 66.7 |  |  |  |  |  |  |  |  |  | 
27 | CC(C)(C)OC(=O)NCCC(=O)NC1(c2cc3ccccc3s2)CCCCC1 | 30.6 | 33.7 | 29.7 | 33.5 | 29.1 |  | 29.2 | 34.3 | 37.1 | 49.1 |  |  |  |  |  |  |  |  |  | 

Reference: PubChem BioAssay (NCI)
